Data on three molecules can be found in patent US9371568B2, “Markers associated with human double minute 2 inhibitors” (Novartis AG, priority 2012, dated 2016).

One data set relates to SJSA-1 osteosarcoma line. Particulars: SJSA-1, amplified MDM2 gene; cited from earlier work.
For data set [1], the system named is human and mouse normal fibroblasts. Particulars: cited from earlier work.
Data set [2] relates to SJSA-1, HCT116 p53wt/wt, SAOS2 and HCT116 p53-/- cells. Kind of data set: Cell proliferation inhibition assay (YOPRO), p53 wild-type and p53 mutant cell lines. The format is cell-based. Particulars: 72 hours, p53 wild-type vs p53 mutant cell lines. The procedure:
Lucern, Switzerland). Briefly, cells are plated in 96-well plates overnight at 37° C. and are treated with increasing concentrations of MDM2i(1) or MDM2i(2) for 72 hours. Cell concentration in each well is then determined using the DNA-interacting fluorescent dye YOPRO according to the manufacturer's instructions and the fluorescent signal is measured using a Gemini-EM standard plate reader (Molecular Devices: Sunnyvale, Calif., USA).

The next data set concerns C3A cells. Kind of data set: Western blot of p53 pathway proteins, C3A sensitive cells. The following applies: 4 hours. The format is cell-based. The procedure:
(§1) That the biomarkers in Table 2/FIG. 3 are reflective of a functional p53 pathway in MDM2i sensitive cells is verified in FIG. 4. […]. Whole cell lysates were prepared using a cell lysis buffer containing 50 mM Tris-HCl pH 7.5, 120 mM NaCl, 1 mM EDTA, 6 mM EGTA pH 8.5, 1% NP-40, 20 mM NaF, 1 mM PMSF and 0.5 mM Na-Vanadat, proteins were separated on NuPAGE 4-12% Bis-Tris Gel (Invitrogen # NP0322BOX, Lucerne; Switzerland), transferred onto Nitrocellulose Protran® BA 85 membranes (Whatman #10 401 261: Piscataway, N.J., USA) at 1.5 mA/cm^2 membrane for 2 h using a semi-dry blotting system, and immunoblotted with either an anti-phospho-p53 (Ser^15) (1/1000; Cell Signaling Technology #9284: Beverly, Mass., USA) rabbit polyclonal antibody, or an anti-p53 (Ab-6) (Pantropic, clone DO-1,) (1/1000; Calbiochem # OP43 San Diego, Calif., USA), an anti-MDM2 (Ab-1, clone IF2) (1/1000; Calbiochem # OP46), an anti-p21^WAF1(Ab-1, clone EA10) (1/500; Calbiochem # OP64: San Diego, Calif., USA) or an anti-α-Tubulin (Sigma # T5168: St. Louis, Mo., USA) mouse monoclonal antibodies, as indicated. […].

A further data set has as its system COLO 792 cells. Kind of data set: Western blot of p53 pathway proteins, COLO 792 insensitive cells. The data set is classed as cell-based. The following applies: increasing concentrations, 4 hours. As to the method:
as §1
(Immunoblotting shows a protein as a band on a membrane.)

Data set [3] relates to SJSA-1 osteosarcoma cells. Kind of data set: SJSA-1 xenograft tumor growth in nude mice. The format is in vivo. The following applies: 10-day treatment. As to the method: To further validate the predictive biomarkers disclosed in FIG. 3, in vivo human xenograft models either from human primary samples or from cell lines were directly injected and grown in tumors subcutaneously in mice and then assessed for MDM2i sensitivity. All the animals were allowed to adapt for 4 days and housed in a pathogen-controlled environment (5 mice/Type III cage) with access to food and water ad libitum. Animals were identified with transponders. Studies were performed according to procedures covered by permit number 1975 issued by the Kantonales Veterinäramt Basel-Stadt and strictly adhered to the Eidgenössisches Tierschutzgesetz and the Eidgenössische Tierschutzverordnung. […] Tumor volumes (TVol), determined from caliper measurements (using the formula I×w×h×τ/6) were measured three times per week. Tumor response was quantified by the change in tumor volume (endpoint minus starting value in mm^3) as the T/C, i.e.
[formula] In the case of a tumor regression, the tumor response was quantified by the percentage of regression of the starting TVol, i.e.
[formula] The body-weight (BW) of the mice was measured three times per week allowing calculation at any particular time-point relative to the day of initiation of treatment (day 0) of both the percentage change in BW (Δ % BW). […]

The subject of data set [4] is p21(CDKN1A). Kind of data set: p21(CDKN1A) mRNA levels in SJSA-1 tumors (qRT-PCR). The data set is classed as in vivo, mice. Particulars: SJSA-1 xenograft, 25-100 mg/kg q24h. As to the method: Briefly, total RNA was purified from cell pellets using the QIAshredder® (79654, Qiagen: Valencia Calif., USA) and RNeasy Mini Kit® (74106, Qiagen: Valencia Calif., USA) according to the manufacturer's instructions, with the exception that no DNA digestion was performed. Total RNA was eluted with 50 μL of RNase-free water. Total RNA was quantitated using the spectrophotometer ND-1000 Nanodrop® (Wilmington Del., USA). The qRT-PCR (Quantitative Reverse Transcriptase Polymerase Chain Reaction) was set up in triplicate per sample using the One-Step RT qPCR Master Mix Plus (RT-QPRT-032×, Eurogentec: Seraing, Belgium), with either control primers and primers for human p21(CDKN1A) (Hs00355782_m1, Applied Biosystems: Carlsbad Calif., USA) or mouse p21(CDKN1A) (Mm00432448_m1, Applied Biosystems: Carlsbad Calif., USA), namely TaqMan Gene Expression kit assays (20× probe dye FAM™ (or VIC)-TAMRA (or MGB); Applied Biosystems: Carlsbad Calif., USA). […] The number of cycles (CT) was determined, 2^−CT values were calculated, and the value normalized by dividing with the 2^−CT value obtained from the Gapdh control. Fold increase over control (i.e. DMSO- or vehicle-treated animals) was calculated and plotted in the bar graph.
For orientation: In qPCR the cycle at which signal appears reflects the starting amount.

Data set [5] has as its system p21(CDKN1A). In words: p21(CDKN1A) protein levels in SJSA-1 tumors (immunohistochemistry). The following applies: SJSA-1 xenograft. The format is in vivo, mice. The procedure:
SJSA-1 xenograft tumors were collected and a 3-4 mm slice out of the middle of the tumor was removed, transferred into pre-labelled histo-cassettes and immersion-fixed in neutral buffered formalin (NBF) 10% (v/v) (pH 6.8-7.2) (J. T. Baker, Winter Garden, Fla., USA), pre-cooled at 4° C. Tumors were then fixed at room temperature for 24 hours, followed by processing in the TPC 15Duo (Tissue Processing Center, Medite) for paraffinization. Subsequently, the tumor slices were embedded in paraffin and from each paraffin block several 3 μm thick sections were cut on a rotary microtome (Mikrom International AG, Switzerland), spread in a 48° C. water-bath, mounted on glass slides (SuperFrost Plus, Thermo Scientific: Waltham Mass., USA), and dried in an oven either at 37° C. overnight or at 60° C. for 30 min. Dry tissue section were processed for immunohistochemistry (IHC) staining. p21(CDKN1A) immunohistochemistry has been performed using the mouse monoclonal antibody clone SX118 from Dako (Cat. No. M7202 Dako: Carpenteria Calif., USA) at a dilution of 1:50. Immunohistochemistry has been performed on a Ventana Discovery XT automated immunostainer using the N-Histofine Mousestain Kit (Nichirei Bioscience Inc, Japan) in combination with the DABMap Kit chromogen system, omitting the SA-HRP solution (Ventana/Roche Diagnostics GmbH, Mannheim, Germany). […]

Take `COc1ccc(C2=N[C@@H](c3ccc(Cl)cc3)[C@@H](c3ccc(Cl)cc3)N2C(=O)N2CCNC(=O)C2)c(OC(C)C)c1` [Nutlin-3]: in the data set on SJSA-1 osteosarcoma line, the apoptosis entry is reported as “increased apoptosis” and the proliferation result is listed as “reduced proliferation”. In data set [1], the “proliferation of normal fibroblasts” value is “proliferation of the cells was slowed” and the “viability of normal fibroblasts” value is “retained their viability”.

Take `COc1cc2c(cc1OC(C)C)[C@H](c1ccc(Cl)cc1)N(c1ccc(N(C)C[C@H]3CC[C@H](N4CCN(C)C(=O)C4)CC3)cc1)C(=O)C2` [MDM2i(1)]: the tumor cell proliferation entry in data set [2] is “hampering tumor cell proliferation in a p53-dependent manner”. The phospho-p53 entry in the data set with C3A cells (C3A cells, increasing concentrations) was “no significant increase”; in the data set on COLO 792 cells it was “no significant increase”. For the same molecule, the “expression of p53 target genes p21(CDKN1A) and MDM2” value with C3A cells (C3A sensitive cells) is on record as “strong de novo expression”. In addition, the “T/C (tumor growth inhibition)” value in data set [3] (25 mg/kg q24h) turned out to be 50%; in data set [3] (50 mg/kg q24h), 3%. In addition, in the data set on p21(CDKN1A) [4], the “p21(CDKN1A) mRNA levels in tumors” value is on record as “significant dose-dependent induction”. Moreover, the “p21(CDKN1A) protein levels in tumors” value in the data set on p21(CDKN1A) [5] is reported as “significant dose-dependent induction”.

Take `COc1cc2c(cc1OC(C)C)[C@H](c1ccc(Cl)cc1)N(c1ccc(N(C)C[C@H]3CC[C@H](N4CCNC(=O)C4)CC3)cc1)C(=O)C2` [MDM2i(2)]: the tumor cell proliferation result in data set [2] is given as “hampering tumor cell proliferation in a p53-dependent manner”.
